# Test results published in patent publication US20190375708A1 (VenatoRx Pharmaceuticals, Inc., priority 2018, published 2019).
# Experiments:
# [1] = In vitro cytotoxicity assay (MTT cell viability) in HepG2 cells; assay type: cell-based, human; conditions: human
# Method in brief: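 HepG2 cells incubated 7 days at 37 °C, 5% CO2 with compounds from 30 μM to 1.0 nM (8 half-log dilutions). Viability read as MTT formazan absorbance at 492 nm, normalised to vehicle controls; CC50 from 4-parameter non-linear regression.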
# [2] = tested on: HBV replication in HepAD38 cells; assay: Anti-HBV replication assay in HepAD38 cells (QPCR of extracellular HBV DNA); assay type: cell-based, HBV (genotype D, serotype ayw); conditions: Hepatitis B virus, 168 h, 7 days incubation, extracellular HBV DNA by QPCR, read-out: Anti-HBV EC50
# Method in brief: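 Tet-off HepAD38, 7-day compound exposure ([…], 1 log10 steps, DMSO vehicle), 37 °C. Extracellular HBV DNA by QPCR, copies/mL via standard curve, % inhibition vs vehicle, EC50 by 4-parameter regression. Entecavir as positive control.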
SMILES,CC50 at 7 days [1],EC50 [2]
"Cc1cc(NC(=O)c2cc(C(=O)C(=O)NC(C)(C)C)n3c2CCCC3)cc(F)c1F [Example 397, 3-(2-(tert-butylamino)-2-oxoacetyl)-N-(3,4-difluoro-5-metthylphenyl)-5,6,7,8-tetrahydroindolizine-1-carboxamide]",5000 to 30000 nM,50 to 499 nM
"Cc1cc(NC(=O)c2c(C)c(C(=O)C(=O)N3CCC(O)CC3)n(C)c2C)ccc1F [Example 47, N-(4-fluoro-3-methylphenyl)-5-(2-(4-hydroxypiperidin-1-yl)-2-oxoacetyl)-1,2,4-trimethyl-1H-pyrrole-3-carboxamide]",500 to 4990 nM,50 to 499 nM
"Cc1cc(NC(=O)c2cc(C(=O)C(=O)N[C@@H](C)C(F)(F)F)n3c2CCCC3)ccc1F [Example 407, (S)-N-(4-fluoro-3-methylphenyl)-3-(2-oxo-2-((1,1,1-trifluoropropan-2-yl)amino)acetyl)-5,6,7,78-tetrahydroindolizine-1-carboxamide]",> 30000 nM,50 to 499 nM
"Cc1cc(NC(=O)c2c(C)c(C(=O)C(=O)NC3(C(F)(F)F)CCOCC3)n(C)c2C)ccc1F [Example 109, N-(4-fluoro-3-methylphenyl)-1,2,4-trimethyl-5-(2-oxo-2-((4-(trifluoromethyl)tetrahydro-2H-pyran-4-yl)amino)acetyl)-1H-pyrrole-3-carboxamide]",> 30000 nM,< 50 nM
"Cc1cc(NC(=O)c2cc(C(=O)C(=O)NC3(C)CC(F)(F)C3)n3c2CCCC3)ccc1F [Example 404, 3-(2-((3,3-difluoro-1-methylcyclobutyl)amino)-2-oxoacetyl)-N-(4-fluoro-3-methylphenyl)-5,6,7,8-tetrahydroindolizine-1-carboxamide]",> 30000 nM,50 to 499 nM
"Cc1cc(NC(=O)c2c(C)c(C(=O)C(=O)N[C@]3(C)C[C@H](O)C3)n(C)c2C)ccc1F [Example 267, N-(4-fluoro-3-methylphenyl)-5-(2-(((1s,3s)-3-hydroxy-1-methylcyclobutyl)amino)-2-oxoacetyl)-1,2,4-trimethyl-1H-pyrrole-3-carboxamide]",> 30000 nM,< 50 nM
"CC(=O)N1CCC(NC(=O)C(=O)c2c(C)c(C(=O)Nc3ccc(F)c(C)c3)c(C)n2C)CC1 [Example 354, 5-(2-((1-acetylpiperidin-4-yl)amino)-2-oxoacetyl)-N-(4-fluoro-3-methylphenyl)-1,2,4-trimethyl-1H-pyrrole-3-carboxamide]",> 30000 nM,< 50 nM
"CCn1c(C)c(C(=O)Nc2ccc(F)c(C)c2)c(C)c1C(=O)C(=O)NC(C)(C)C(N)=O [Example 99, 5-(2-((1-amino-2-methyl-1-oxopropan-2-yl)amino)-2-oxoacetyl)-1-ethyl-N-(4-fluoro-3-methylphenyl)-2,4-dimethyl-1H-pyrrole-3-carboxamide]",> 30000 nM,50 to 499 nM
"Cc1cc(NC(=O)c2c(C)c(C(=O)C(=O)NC3COCC(O)C3)n(C)c2C)ccc1F (stereo not shown) [Example 608, N-(4-fluoro-3-methylphenyl)-5-(2-((5-hydroxytetrahydro-2H-pyran-3-yl)amino)-2-oxoacetyl)-1,2,4-trimethyl-1H-pyrrole-3-carboxamide]",> 30000 nM,< 50 nM
"Cc1noc([C@@H](NC(=O)C(=O)c2c(C)c(C(=O)Nc3ccc(F)c(C)c3)c(C)n2C)C(C)C)n1 [Example 145, (S)-N-(4-fluoro-3-methylphenyl)-1,2,4-trimethyl-5-(2-((2-methyl-1-(3-methyl-1,2,4-oxadiazol-5-yl)propyl)amino)-2-oxoacetyl)-1H-pyrrole-3-carboxamide]",> 30000 nM,< 50 nM
"CC(C)(CO)NC(=O)C(=O)c1cc(C(=O)Nc2cc(F)c(F)c(F)c2)c2n1CCCC2 [Example 424, 3-(2-((1-hydroxy-2-methylpropan-2-yl)amino)-2-oxoacetyl)-N-(3,4,5-trifluorophenyl)-5,6,7,8-tetrahydroindolizine-1-carboxamide]",> 30000 nM,50 to 499 nM
"Cc1cc(NC(=O)c2c(C)c(C(=O)C(=O)NC3CC4CCC(C3)S4(=O)=O)n(C)c2C)ccc1F (stereo not shown) [Example 624, 5-(2-((8,8-dioxido-8-thiabicyclo[3.2.1]ctan-3-yl)amino)-2-oxoacetyl)-N-(4-fluoro-3-methylphenyl)-1,2,4-trimethyl-1H-pyrrole-3-carboxamide]",> 30000 nM,< 50 nM
"Cc1c(C(=O)Nc2ccc(F)c(F)c2)c2n(c1C(=O)C(=O)N[C@H]1C[C@H](O)C1)CCCC2 [Example 456, N-(3,4-difluorophenyl)-3-(2-(((1r,3r)-3-hydroxycyclobutyl)amino)-2-oxoacetyl)-2-methyl-5,6,7,8-tetrahydroindolizine-1-carboxamide]",> 30000 nM,500 to 1000 nM
"Cc1cc(NC(=O)c2c(C)c(C(=O)C(=O)NC3(C(F)(F)F)CCOCC3)n(CCF)c2C)ccc1F [Example 230, N-(4-fluoro-3-methylphenyl)-1-(2-fluoroethyl)--2,4-dimethyl-5-(2-oxo-2-((4-(trifluoromethyl)tetrahydro-2H-pyran-4-yl)amino)acetyl)-1H-pyrrole-3-carboxamide]",> 30000 nM,< 50 nM
"COCC(C)(C)NC(=O)C(=O)c1c(C)c(C(=O)Nc2cnc(F)c(C)c2)c(C)n1C [Example 167, N-(6-fluoro-5-methylpyridin-3-yl)-5-(2-((1-methyoxy-2-methylpropan-2-yl)amino)-2-oxoacetyl)-1,2,4-trimethyl-1H-pyrrole-3-carboxamide]",> 30000 nM,< 50 nM
"Cc1cc(NC(=O)c2c(C)c(C(=O)C(=O)NC(C)(C)C)n(CCO)c2C)ccc1F [Example 71, 5-(2-(tert-butylamino)-2-oxoacetyl)-N-(4-fluoro-3-methylphenyl)-1-(2-hydroxyethyl)-2,4-dimethyl-1H-pyrrole-3-carboxamide]",> 30000 nM,> 1000 nM
"Cc1c(C(=O)Nc2ccc(F)c(F)c2)c2n(c1C(=O)C(=O)NC1(CO)CC(F)(F)C1)CCCC2 [Example 459, 3-(2-((3,3-difluoro-1-(hydroxymethyl)cyclobutyl)amino)-2-oxoacetyl)-N-(3,4-difluorophenyl)-2-methyl-5,6,7,8-tetrahydroindolizine-1-carboxamide]",5000 to 30000 nM,50 to 499 nM
"Cc1c(C(=O)Nc2ccc(F)c(F)c2)c(C)n(C)c1C(=O)C(=O)NC(C)(C)C [Example 4, 5-(2-(tert-butylamino)-2-oxoacetyl)-N-(3,4-difluorophenyl)-1,2,4-trimethyl-1H-pyrrole-3-carboxamide]",> 30000 nM,< 50 nM
"Cc1cc(NC(=O)c2c(C)c(C(=O)C(=O)N[C@H]3CC[C@H](O)C3)n(CCF)c2C)ccc1F [Example 194, N-(4-fluoro-3-methylphenyl)-1-(2-fluoroethyl)-5-(2-(((1S,3S)-3-hydroxycyclopentyl)amino)-2-oxoacetyl)-2,4-dimethyl-1H-pyrrole-3-carboxamide]",> 30000 nM,50 to 499 nM
"Cc1cc(NC(=O)c2c(C)c(C(=O)C(=O)N[C@H](C)C(C)(C)C)n(C)c2C)ccc1F [Example 63, (R)-5-(2-((3,3-dimethylbutan-2-yl)amino)-2-oxoacetyl)-N-(4-fluoro-3-methylphenyl)-1,2,4-trimethyl-1H-pyrrole-3-carboxamide]",> 30000 nM,< 50 nM
"Cc1noc(C2(NC(=O)C(=O)c3c(C)c(C(=O)Nc4ccc(F)c(C)c4)c(C)n3C)CC2)n1 [Example 155, N-(4-fluoro-3-methylphenyl)-1,2,4-trimethyl-5-(2-((1-(3-methyl-1,2,4-oxxadiazol-5-yl)cyclopropyl)amino)-2-oxoacetyl)-1H-pyrrole-3-carboxamide]",> 30000 nM,< 50 nM
"Cc1cc(NC(=O)c2c(C)c(C(=O)C(=O)NC(C)(C)CF)n(C)c2C)ccc1F [Example 6, 5-(2-((1-fluoro-2-methylpropan-2-yl)amino)-2-oxoacetyl)-N-(4-fluoro-3-methylphenyl)-1,2,4-trimethyl-1H-pyrrole-3-carboxamide]",> 30000 nM,< 50 nM
"Cc1cc(NC(=O)c2c(C)c(C(=O)C(=O)N[C@H](CO)C(=O)O)n(C)c2C)ccc1F [Example 33, (2-(4-((4-fluoro-3-methylphenyl)carbamoyl)-1,3,5-trimethyl-1H-pyrrol-2-yl)-2-oxoacetyl)-D-serine]",> 30000 nM,> 1000 nM
"Cc1cc(NC(=O)c2c(C)c(C(=O)C(=O)NC3(C(N)=O)C4CC5CC(C4)CC3C5)n(C)c2C)ccc1F (stereo not shown) [Example 43, 5-(2-(((1r,3r,5r,7r)-2-carbamoyladamantan-2-yl)amino)-2-oxoacetyl)-N-(4-fluoro-3-methylphenyl)-1,2,4-trimethyl-1H-pyrrole-3-carboxamide]",500 to 4990 nM,< 50 nM
"CC(C)(CO)CNC(=O)C(=O)c1c(Cl)c(C(=O)Nc2ccc(F)c(Cl)c2)c2n1CCC2 [Example 556, 6-chloro-N-(3-chloro-4-fluorophenyl)-5-(2-((3-hydroxy-2,2-dimethylpropyl)amino)-2-oxoacetyl)-2,3-dihydro-1H-pyrrolizine-7-carboxamide]",5000 to 30000 nM,50 to 499 nM
"Cc1c(C(=O)Nc2ccc(F)nc2)c(C)n(C)c1C(=O)C(=O)N[C@H](C)C(F)(F)F [Example 166, (R)-N-(6-fluoropyridin-3-yl)-1,2,4-trimethyl-5-(2-oxo-2-((1,1,1-trifluoropropan-2-yl)amino)acetyl)-1H-pyrrole-3-carboxamide]",> 30000 nM,< 50 nM
